According to patent US20200123127A1, “REMOVAL OF SENESCENCE-ASSOCIATED MACROPHAGES” (EVERON BIOSCIENCES, INC., priority 2016, published 2020):
Read-outs that look alike come from different tables or passages of the source.

Tests used:
NF-κB = NF-κB luciferase reporter in HT1080 cells; format: cell-based; settings: HT1080 cells carrying IPTG-inducible p21
[1] = test system: A549 lung adenocarcinoma cells; experiment: Anti-senescent cytotoxicity, senescent vs proliferating A549; format: cell-based, Human; settings: for IC50: Homo sapiens
[2] = test system: SK-Mel-103 melanoma cells; experiment: Anti-senescent cytotoxicity, senescent vs proliferating SK-Mel-103; format: cell-based, Human; settings: for IC50: Homo sapiens
B16 cells = experiment: In vitro growth and viability of B16 cells (resazurin); format: cell-based; settings: 72 hour exposure, up to 20 uM
From the text: FIG. 4. Efficacy of A1.1 analogs in the senescence-enhanced B16 metastasis model. (A) Quantification of metastatic nodules by H&E morphometric analysis, and the resulting reduction in tumor burden (%) compared to vehicle control. (B) Quantitation morphometric analysis of lungs excised from irradiated mice treated with analogs of A1.1 post-inoculation of B16 cell intravenously, along with quantitation of morphometric analysis, are provided. (C) In vitro testing of A1.1 and analogs against the growth and viability of B16 cells, as assessed by the resazurin viability assay after 72 hour exposure to compounds compared to non-treated controls.
The role of senescent cells in the promotion of metastatic potential of cancer cells has also been described [Patent WO 2013090645 A1; Campisi, J. (2015). Cancer and Aging: Rival Demons]. […] To test the efficacy of A1.1, irradiated (11 Gy followed by bone-marrow transplantation) and non-irradiated C57BL/6 mice received B16 melanoma cells via tail vein injection were subsequently (72 hours later) administered A1.1 (20 mg/kg) intraperitoneally once a day for 5 consecutive days.
Synthesized analogs were also tested in vivo, to assess whether optimized structures are capable of showing activity against senescence-mediated B16 lung metastasis in irradiated mice (FIG. 4B). […]

[3] = test system: AdMSC primary adipose-derived mesenchymal stromal cells; experiment: Anti-senescent cytotoxicity, senescent vs proliferating AdMSC; format: cell-based, Human; settings: for IC50: Homo sapiens
[4] = test system: RWPE-1 normal prostate epithelial cells; experiment: dnPTEN-induced senescence model in RWPE-1 cells (SA-beta-Gal and methylene blue staining); format: cell-based; settings: 10 uM for 72 hours
Protocol: FIG. 3. Activity of A1.1 and analog A1.12 in a model of dnPTEN-induced senescence in RWPE-1 normal prostate epithelial cells. A population of transduced RWPE-1 cells containing doxycycline-inducible dnPTEN was senesced via 1 ug/ml doxycycline for 7 days. Cells which bypass senescence continued to proliferate to form a confluent monolayer. The mixed population of senescent and proliferating cells was treated with A1.1 and A1.12 at 10 uM for 72 hours. SA-beta-Gal staining was used to monitor the amount of senescent cells of treatment groups compared to non-treated control. In addition, methylene blue was used to quantitate overall cell mass, which was comprised mostly of the non-senescent, proliferating cells. Treatment with the anti-senescent compounds led to a substantial decrease in SA-beta-Gal staining, while the amount of methylene blue staining was less affected.
Senescent cells are strongly associated with benign prostate hyperplasia (BPH) and the development of prostate cancer [Vital, P. et al. (2014) The Senescence-Associated Secretory Phenotype Promotes Benign Prostatic Hyperplasia. Am J Pathol, 184(3): 721-731; Burton, D. et al. (2013). Androgen Deprivation-Induced Senescence Promoted Outgrowth of Anderogen-Refractory Protstate Cancer Cells. PLOS One, 8(6):e68003]. […] We sought to evaluate the efficacy of our compounds in a model of RWPE-1 normal prostate epithelial cells transduced with a construct for inducible loss of PTEN function [doxycycline-inducible expression of a dominant-negative PTEN (dnPTEN) mutant]. In the presence of doxycycline, a fraction of the population of transduced cells became senescent, while cells bypassing senescence continued to grow until a confluent monolayer was formed.

| SMILES | basal and inducible activity of NF-κB (NF-κB) | Selectivity (Prolif/Sen) ([1]; A549, Bleomycin) | Selectivity (Prolif/Sen) ([1]; A549, Irradiation) | IC50 ([1]; light or radiation study, A549, senescence induction: Irradiation, read-out: Activity against Senescent Cells (IC50; uM)) [µM] | IC50 ([1]; A549, senescence induction: Bleomycin, read-out: Activity against Senescent Cells (IC50; uM)) [µM] | IC50 ([1]; A549 proliferating, read-out: Activity against Proliferating Cells (IC50; uM)) [µM] | IC50 ([2]; SK-Mel-103, senescence induction: Bleomycin, read-out: Activity against Senescent Cells (IC50; uM)) [µM] | IC50 ([2]; SK-Mel-103 proliferating, read-out: Activity against Proliferating Cells (IC50; uM)) [µM] | Selectivity (Prolif/Sen) ([2]; SK-Mel-103, Bleomycin) | B16 growth in vitro (B16 cells) | Selectivity (Prolif/Sen) ([3]; AdMSC, Bleomycin) | IC50 ([3]; AdMSC proliferating, read-out: Activity against Proliferating Cells (IC50; uM)) [µM] | IC50 ([3]; AdMSC, senescence induction: Bleomycin, read-out: Activity against Senescent Cells (IC50; uM)) [µM] | proliferating cells / overall cell mass (methylene blue staining) [4] | senescent cells (number of SA-β-Gal-positive cells) ([4]; dnPTEN-induced senescence) |
| --- | --- | --- | --- | --- | --- | --- | --- | --- | --- | --- | --- | --- | --- | --- | --- |
| O=C(NCCCc1cn[nH]c1)c1ccc(-c2ccncc2)c(C#Cc2ccc(F)cc2)c1 [OT-82] | inhibits both basal and inducible activity |  |  |  |  |  |  |  |  |  |  |  |  |  |  |
| CCOC(=O)c1sc(SCc2ccccc2)c2c1CC(c1ccc(OC)cc1)C/C2=N\O (stereo not drawn) [Example A1.1] |  | 3.7 | 4.5 | 3.7 | 4.5 | 16.5 | 5.6 | 18.5 | 3.3 | did not inhibit | 2.3 | 12.6 | 5.6 | inhibit growth of proliferating cells | selective elimination of senescent cells |
